Laboratory results as given in patent US20230286973A1, “PROTEIN SECRETION INHIBITORS” (KEZAR LIFE SCIENCES, priority 2020, published 2023).

How the values were obtained:
[1] = Liver Microsome Stability Assay (human); conditions: human liver microsomes, with NADPH, 1.0 uM compound
Description: (§1) Stability of a compound was assessed in the presence of liver microsomes from various sources—mouse, rat, monkey and human liver microsomes. 1.0 uM compound, 0.4% DMSO in 0.1 M Potassium Phosphate with 1.0 mg/mL liver microsomes, were incubated at 37° C. with or without 1 mM NADPH. The samples were quenched at 0, and 30 minutes.

[2] = tested on: multiple myeloma cell line U266B1; assay: U266 Cell Viability Assay; type: cell-based, human; conditions: Homo sapiens, U-266, 48 h, U266B1 cells, Celltiter-Glo
In short: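 Steps: culture in RPMI 1640 plus 10% FBS and 2 mM glutamine; plate and add compound dilutions; incubate 48 hours at 37° C., 5% CO2; add CellTiter-Glo and quantify luciferase signal.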

[3] = tested on: HER3-ss+4aa/Gaussia Luciferase; assay: Dox-Induced Her3-ss-Gluc Assay; type: cell-based; conditions: 24 hr Dox induction; 293FRT/TO cells; read-out: 24 hr Dox Inducible Her3(ss + 4)Gluc 293FRT/TO: Mean IC50
In short: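 Cells were seeded a day ahead, then given compound diluted in DMSO/media with doxycycline to induce expression of the HER3 signal sequence (+4 aa)–Gaussia luciferase fusion. Incubation was at 37° C., 5% CO2, in a stable Flp-In 293 T-REx line.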

[4] = tested on: PD1-ss+10aa/Gaussia Luciferase; assay: Dox-Induced PD1-ss-Gluc Assay; type: cell-based; conditions: 24 hr Dox induction; 293FRT/TO cells; read-out: 24 hr Dox Inducible PD1ssGluc 293FRT/TO: Mean IC50
In short: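 Flp-In 293 T-REx cells stably carrying a doxycycline-inducible Gaussia luciferase fused to the PD1 signal sequence plus 10 aa were plated the day before. Compound dilutions in DMSO/media containing doxycycline were then added and incubated at 37 °C, 5% CO2. Data for undefined stereochemistry refer to stereoisomer mixtures.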

[5] = tested on: TNFα-FL/Gaussia Luciferase; assay: Dox Induced TNFα-FL-Gluc Assay; type: cell-based; conditions: for IC50: 24 hr Dox induction, 293FRT/TO cells, read-out: 24 hr Dox Inducible TNFaFLGluc 293FRT/TO: Mean IC50; for 24 hr Dox Inducible TNFaFLGluc 293FRT/TO: TNF/PD1: ratio of TNFaFLGluc IC50 to PD1ssGluc IC50
In short: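 Stereoisomer mixtures were tested where stereochemistry is not drawn. Induction used doxycycline added together with compound dilutions in DMSO/media to Flp-In 293 T-REx cells carrying a T-REx-regulated TNFα (aa 1-233)-Gaussia luciferase construct, then incubated at 37 °C, 5% CO2.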

[6] = tested on: IL-2-FL/Gaussia Luciferase; assay: Dox Induced IL2-FL-Gluc Assay; type: cell-based; conditions: for IC50: 24 hr Dox induction, 293FRT/TO cells, read-out: 24 hr Dox Inducible IL2FLGluc 293FRT/TO: Mean IC50; for 24 hr Dox Inducible IL2FLGluc 293FRT/TO: IL2/PD1: ratio of IL2FLGluc IC50 to PD1ssGluc IC50
In short: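 Cells are plated one day ahead, then receive compound dilutions in DMSO/media with doxycycline and incubate at 37° C, 5% CO2. They are Flp-In 293 T-REx cells expressing a full-length IL-2 (amino acids 1-153)–Gaussia luciferase fusion under T-REx control.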

[7] = tested on: multiple myeloma cell line NCI-H929; assay: H929 Cell Viability Assay; type: cell-based, human; conditions: Homo sapiens, NCI-H929, 48 h, NCI-H929 cells, Celltiter-Glo
In short: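 Luminescent ATP detection (CellTiter-Glo) after 48 hours of compound exposure measures viability. Cells were plated in RPMI 1640 containing 10% fetal bovine serum and kept at 37° C under 5% CO2.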

[8] = Liver Microsome Stability Assay (rat); conditions: rat liver microsomes, with NADPH, 1.0 uM compound
Description: as §1

[9] = Liver Microsome Stability Assay (monkey); conditions: monkey liver microsomes, with NADPH, 1.0 uM compound
Description: as §1

[10] = Liver Microsome Stability Assay (mouse); conditions: mouse liver microsomes, with NADPH, 1.0 uM compound
Description: as §1

CC(=O)N[C@H](C)c1ccc(N2CCC[C@@H]2c2csc(NC(=O)c3cccn3Cc3ccncc3)n2)cc1 [Compound A66, N-(4-((R)-1-(4-((R)-1-acetamidoethyl)phenyl)pyrrolidin-2-yl)thiazol-2-yl)-1-(pyridin-4-ylmethyl)-1H-pyrrole-2-carboxamide]
Liver Microsome Stability (Multiple Species): Human - % Remaining after 30 min w/NADPH [1]: 2.98%
EC50 [2]: > 25000 nM
IC50 [3]: 59.7 nM
IC50 [4]: 27.2 nM
IC50 [5]: 584 nM
24 hr Dox Inducible TNFaFLGluc 293FRT/TO: TNF/PD1 [5]: 21.5
IC50 [6]: 69 nM
24 hr Dox Inducible IL2FLGluc 293FRT/TO: IL2/PD1 [6]: 2.5
EC50 [7]: 416 nM
Liver Microsome Stability (Multiple Species): Rat - % Remaining after 30 min w/NADPH [8]: 5.19%
Liver Microsome Stability (Multiple Species): Monkey - % Remaining after 30 min w/NADPH [9]: 2.72%
Liver Microsome Stability (Multiple Species): Mouse - % Remaining after 30 min w/NADPH [10]: 30%

C[C@@H](N)c1ccc(N2CCC[C@@H]2c2csc(NC(=O)c3cccn3Cc3ccncc3)n2)cc1 [Compound A67, N-(4-((R)-1-(4-((R)-1-aminoethyl)phenyl)pyrrolidin-2-yl)thiazol-2-yl)-1-(pyridin-4-ylmethyl)-1H-pyrrole-2-carboxamide]
Liver Microsome Stability (Multiple Species): Human - % Remaining after 30 min w/NADPH [1]: 28.9%
EC50 [2]: 6860 nM
IC50 [3]: 65.1 nM
IC50 [4]: 23.6 nM
IC50 [5]: 862 nM
24 hr Dox Inducible TNFaFLGluc 293FRT/TO: TNF/PD1 [5]: 36.4
IC50 [6]: 55 nM
24 hr Dox Inducible IL2FLGluc 293FRT/TO: IL2/PD1 [6]: 2.3
EC50 [7]: 562 nM
Liver Microsome Stability (Multiple Species): Rat - % Remaining after 30 min w/NADPH [8]: 51.9%
Liver Microsome Stability (Multiple Species): Monkey - % Remaining after 30 min w/NADPH [9]: 40.4%
Liver Microsome Stability (Multiple Species): Mouse - % Remaining after 30 min w/NADPH [10]: 82.3%

CC(=O)Nc1ccc(N2CCC[C@@H]2c2csc(NC(=O)c3cccn3Cc3ccnc(F)c3)n2)cc1 [Compound A68, (R)-N-(4-(1-(4-acetamidophenyl)pyrrolidin-2-yl)thiazol-2-yl)-1-((2-fluoropyridin-4-yl)methyl)-1H-pyrrole-2-carboxamide]
Liver Microsome Stability (Multiple Species): Human - % Remaining after 30 min w/NADPH [1]: 25.8%
EC50 [2]: > 25000 nM
IC50 [3]: 4.98 nM
IC50 [4]: 2.32 nM
IC50 [5]: 44.1 nM
24 hr Dox Inducible TNFaFLGluc 293FRT/TO: TNF/PD1 [5]: 19
IC50 [6]: 6.04 nM
24 hr Dox Inducible IL2FLGluc 293FRT/TO: IL2/PD1 [6]: 2.6
EC50 [7]: 44.6 nM
Liver Microsome Stability (Multiple Species): Rat - % Remaining after 30 min w/NADPH [8]: 16.9%
Liver Microsome Stability (Multiple Species): Monkey - % Remaining after 30 min w/NADPH [9]: 11.8%
Liver Microsome Stability (Multiple Species): Mouse - % Remaining after 30 min w/NADPH [10]: 27.5%

CC(=O)N[C@@H](C)c1ccc(N2CCC[C@@H]2c2csc(NC(=O)c3cccn3Cc3ccnc(F)c3)n2)cc1 [Compound A69, N-(4-((R)-1-(4-((S)-1-acetamidoethyl)phenyl)pyrrolidin-2-yl)thiazol-2-yl)-1-((2-fluoropyridin-4-yl)methyl)-1H-pyrrole-2-carboxamide]
Liver Microsome Stability (Multiple Species): Human - % Remaining after 30 min w/NADPH [1]: 1.43%
EC50 [2]: > 25000 nM
IC50 [3]: 60.4 nM
IC50 [4]: 52 nM
IC50 [5]: 330 nM
24 hr Dox Inducible TNFaFLGluc 293FRT/TO: TNF/PD1 [5]: 6.35
IC50 [6]: 116 nM
24 hr Dox Inducible IL2FLGluc 293FRT/TO: IL2/PD1 [6]: 2.2
EC50 [7]: 3180 nM
Liver Microsome Stability (Multiple Species): Rat - % Remaining after 30 min w/NADPH [8]: 35%
Liver Microsome Stability (Multiple Species): Monkey - % Remaining after 30 min w/NADPH [9]: 0.47%
Liver Microsome Stability (Multiple Species): Mouse - % Remaining after 30 min w/NADPH [10]: 12.1%

CC(=O)N[C@H](C)c1ccc(N2CCC[C@@H]2c2csc(NC(=O)c3cccn3Cc3ccnc(F)c3)n2)cc1 [Compound A70, N-(4-((R)-1-(4-((R)-1-acetamidoethyl)phenyl)pyrrolidin-2-yl)thiazol-2-yl)-1-((2-fluoropyridin-4-yl)methyl)-1H-pyrrole-2-carboxamide]
Liver Microsome Stability (Multiple Species): Human - % Remaining after 30 min w/NADPH [1]: 2.86%
EC50 [2]: > 25000 nM
IC50 [3]: 18.3 nM
IC50 [4]: 13.2 nM
IC50 [5]: 236 nM
24 hr Dox Inducible TNFaFLGluc 293FRT/TO: TNF/PD1 [5]: 18
IC50 [6]: 30 nM
24 hr Dox Inducible IL2FLGluc 293FRT/TO: IL2/PD1 [6]: 2.3
EC50 [7]: 385 nM
Liver Microsome Stability (Multiple Species): Rat - % Remaining after 30 min w/NADPH [8]: 7.79%
Liver Microsome Stability (Multiple Species): Monkey - % Remaining after 30 min w/NADPH [9]: 0.83%
Liver Microsome Stability (Multiple Species): Mouse - % Remaining after 30 min w/NADPH [10]: 23.7%

C[C@H](N)c1ccc(N2CCC[C@@H]2c2csc(NC(=O)c3cccn3Cc3ccncc3)n2)cc1 [Compound A71, N-(4-((R)-1-(4-((S)-1-aminoethyl)phenyl)pyrrolidin-2-yl)thiazol-2-yl)-1-(pyridin-4-ylmethyl)-1H-pyrrole-2-carboxamide]
Liver Microsome Stability (Multiple Species): Human - % Remaining after 30 min w/NADPH [1]: 51.8%
EC50 [2]: 7800 nM
IC50 [3]: 148 nM
IC50 [4]: 136 nM
IC50 [5]: 3700 nM
24 hr Dox Inducible TNFaFLGluc 293FRT/TO: TNF/PD1 [5]: 27.2
IC50 [6]: 366 nM
24 hr Dox Inducible IL2FLGluc 293FRT/TO: IL2/PD1 [6]: 2.7
EC50 [7]: 4410 nM
Liver Microsome Stability (Multiple Species): Rat - % Remaining after 30 min w/NADPH [8]: 82.1%
Liver Microsome Stability (Multiple Species): Monkey - % Remaining after 30 min w/NADPH [9]: 36.1%
Liver Microsome Stability (Multiple Species): Mouse - % Remaining after 30 min w/NADPH [10]: 95.6%

C[C@@H](N)c1ccc(N2CCC[C@@H]2c2csc(NC(=O)c3cccn3Cc3ccnc(F)c3)n2)cc1 [Compound A72, N-(4-((R)-1-(4-((R)-1-aminoethyl)phenyl)pyrrolidin-2-yl)thiazol-2-yl)-1-((2-fluoropyridin-4-yl)methyl)-1H-pyrrole-2-carboxamide]
Liver Microsome Stability (Multiple Species): Human - % Remaining after 30 min w/NADPH [1]: 23.9%
EC50 [2]: 6550 nM
IC50 [3]: 197 nM
IC50 [4]: 141 nM
IC50 [5]: 2650 nM
24 hr Dox Inducible TNFaFLGluc 293FRT/TO: TNF/PD1 [5]: 18.8
IC50 [6]: 316 nM
24 hr Dox Inducible IL2FLGluc 293FRT/TO: IL2/PD1 [6]: 2.2
EC50 [7]: 3770 nM
Liver Microsome Stability (Multiple Species): Rat - % Remaining after 30 min w/NADPH [8]: 94.1%
Liver Microsome Stability (Multiple Species): Monkey - % Remaining after 30 min w/NADPH [9]: 37.8%
Liver Microsome Stability (Multiple Species): Mouse - % Remaining after 30 min w/NADPH [10]: 72.3%

CC(=O)N[C@@H](C)c1ccc(N2CCC[C@@H]2c2csc(NC(=O)c3cccn3Cc3ccncc3)n2)cc1 [Compound A73, N-(4-((R)-1-(4-((S)-1-acetamidoethyl)phenyl)pyrrolidin-2-yl)thiazol-2-yl)-1-(pyridin-4-ylmethyl)-1H-pyrrole-2-carboxamide]
Liver Microsome Stability (Multiple Species): Human - % Remaining after 30 min w/NADPH [1]: 0.1%
EC50 [2]: > 25000 nM
IC50 [3]: 23.6 nM
IC50 [4]: 26.6 nM
IC50 [5]: 350 nM
24 hr Dox Inducible TNFaFLGluc 293FRT/TO: TNF/PD1 [5]: 13.2
IC50 [6]: 88.5 nM
24 hr Dox Inducible IL2FLGluc 293FRT/TO: IL2/PD1 [6]: 3.3
EC50 [7]: 3750 nM
Liver Microsome Stability (Multiple Species): Rat - % Remaining after 30 min w/NADPH [8]: 15%
Liver Microsome Stability (Multiple Species): Monkey - % Remaining after 30 min w/NADPH [9]: 0.08%
Liver Microsome Stability (Multiple Species): Mouse - % Remaining after 30 min w/NADPH [10]: 0.14%

C[C@H](N)c1ccc(N2CCC[C@@H]2c2csc(NC(=O)c3cccn3Cc3ccnc(F)c3)n2)cc1 [Compound A74, N-(4-((R)-1-(4-((S)-1-aminoethyl)phenyl)pyrrolidin-2-yl)thiazol-2-yl)-1-((2-fluoropyridin-4-yl)methyl)-1H-pyrrole-2-carboxamide]
Liver Microsome Stability (Multiple Species): Human - % Remaining after 30 min w/NADPH [1]: 38.6%
EC50 [2]: 6130 nM
IC50 [3]: 232 nM
IC50 [4]: 118 nM
IC50 [5]: 2800 nM
24 hr Dox Inducible TNFaFLGluc 293FRT/TO: TNF/PD1 [5]: 23.7
IC50 [6]: 367 nM
24 hr Dox Inducible IL2FLGluc 293FRT/TO: IL2/PD1 [6]: 3.1
EC50 [7]: 3870 nM
Liver Microsome Stability (Multiple Species): Rat - % Remaining after 30 min w/NADPH [8]: 98.3%
Liver Microsome Stability (Multiple Species): Monkey - % Remaining after 30 min w/NADPH [9]: 38.5%
Liver Microsome Stability (Multiple Species): Mouse - % Remaining after 30 min w/NADPH [10]: 94.3%
